pIC50: −log10 of the molar value. Read-outs that look alike come from different tables or passages of the source. Positions of bridges follow the written chain, without caps; N, C: chain ends. Residues, ends and D or L forms follow the SMILES beside them.
Legend:
Format in all cases: cell-based, human
U87-MG cells [1] = test: Cell viability / proliferation, Trypan blue exclusion, U87-MG; conditions: DMEM/10% FBS, 100 nM peptide, 24, 48 and 72 h
Procedure: (§1) Cell viability was tested in DMEM/10% FBS in the presence of 100 nM uPAcyclin or Ala peptides via a Trypan blue exclusion assay, as previously reported, using 4 × 10^4 U87-MG and U251-MG glioblastoma cells/sample followed for 24, 48 and 72 h.
(§2) To rule out the possibility that the effects of uPAcyclin and Ala peptides could be due to the inhibition of cell proliferation, cell growth in the presence of these peptides was monitored for 24, 48 and 72 h (Supporting Information, Figure S2). U87-MG and U251-MG cells were exposed to diluents or to serum in the presence of 100 nM uPAcyclin, [Ala^1]uPAcyclin, [Ala^4]uPAcyclin, [Ala^8]uPAcyclin and [Ala^2,Ala^5]uPAcyclin (for the peptide choice, see above), and cell viability was tested at the indicated times using Trypan blue (Figure S2A,B). Both cell lines proliferate in culture in the presence of serum (DMEM/10% FBS), but not in a serum-free medium (DMEM). The growth rates of the U87-MG and U251-MG glioblastoma cell lines were similar, regardless of the exposure to 100 nM of uPAcyclin, [Ala^1]uPAcyclin, [Ala^4]uPAcyclin and [Ala^8]uPAcyclin.
(§3) Figure S5. Cell Viability Assay.
(§4) Unaffected proliferation of U87-MG and U251-MG glioblastoma cells exposed to uPacyclin and selected Ala-peptides. 2x104 U87-MG (A) or U251-MG (B) were seeded in 12 well plates for 24 h in DMEM-10% FBS and serum-starved for 24 h. Then, cells were counted (0 h) and grown in DMEM (no serum) or DMEM-10% FBS, in the presence of 100 nM peptides for 24, 48 and 72 h. Histograms represent the average of two separate experiments undertaken in duplicate.
(§5) (1 picture or pasted object on this page, not shown here)

U251-MG cells [2] = test: Vasculogenic mimicry (tube formation) assay, U251-MG on Geltrex; conditions: 24 h
Procedure: (§6) The tube formation assay was performed as previously described by Franco et al., using 3 × 10^4 U87-MG and 1.5 × 10^4 U251 cells/sample in the absence or presence of specific effectors included at time 0. The evaluation of vascular-like structures, as the branching points number, was performed using the Inverted Microscope DMI Leica 6000 ([…], Milan, Italy) and assessed in 4/5 random fields using the ImageJ 1.52a Software.
(§7) Here, U87-MG cells were plated onto Geltrex^TM, and the formation of round vascular-type structures was assessed after 24 h (Figure 6A). […] If cells are pretreated with nanomolar concentrations of the indicated cyclic peptides for 40 min at 37 °C prior to the VM assay, the number of intersections decreases. For this assay, the peptides [Ala^2, Ala^5]uPAcyclin, [Ala^1]uPAcyclin [Ala^4]uPAcyclin and [Ala^8]uPAcyclin, in addition to the parent uPAcyclin, were selected based on previous considerations. In the histogram shown in Figure 6B, the number of intersections per field is reported for untreated or peptide-exposed samples. As a reference, the uPAcyclin is indeed able to reduce vessel formation by 40% at 1 nM and by 70% at 100 nM. […] [Ala^2,Ala^5]uPAcyclin and [Ala^8]uPAcyclin are able to reduce VM by 50% at 1 nM and by 70% at 100 nM, confirming that they are both efficient inhibitors of GBM functions supporting malignancy. The formation of VM was also monitored in U251-MG cells, which were seeded under the same conditions employed for U87-MG cells. Representative images, reported in Figure 7A, show the elongated structures obtained after 24 h in Geltrex^TM matrix and their reduction in the cells pre-exposed to uPAcyclin, [Ala^2,Ala^5]uPAcyclin and [Ala^8]uPAcyclin. As shown in the histogram reported in Figure 7B, the uPAcyclin is indeed able to reduce vessel formation by 50% at 1 nM and by 80% at 100 nM. […] It is of note that, unlike [Ala^2,Ala^5]uPAcyclin or [Ala^8]uPAcyclin, [Ala^1]uPAcyclin is ineffective, even if employed at 100 nM.
Figure 7 Inhibition of vasculogenic mimicry by U251-MG glioblastoma cells. (A) Representative images of U251-MG cells cultured in DMEM/10% FBS (no matrix) or seeded onto Geltrex^TM in multiwell-96 (1.5 × 10^4 cells/well). When specified, cells were pretreated with diluents (untreated) or with the indicated peptides at the indicated concentrations for 40 min at 37 °C prior to the VM assay. All images are taken after 24 h with the DMI Leica 6000 Inverted Microscope with 50× total magnification; scale bar: 100 μm. (B) The quantitation and expression of branching points (red arrows), is accomplished as reported in the legend of Figure 6 (*** p-value < 0.001).

U87-MG cells [3] = conditions: 24 h; for reduction of vessel formation (VM, branching points): U87-MG on Geltrex
Procedure: as §6, §7
Figure 6 Inhibition of vasculogenic mimicry by U87-MG glioblastoma cells. (A) Representative images of U87-MG cells cultured in DMEM/10% FBS (no matrix) or seeded onto Geltrex^TM in multiwell-96 (3 × 10^4 cells/well). When specified, cells were pre-treated with diluents (untreated) or with the indicated peptides at the indicated concentrations for 40 min at 37 °C prior to the VM assay. All images are taken after 24 h with the DMI Leica 6000 Inverted Microscope and 50× total magnification; scale bar: 100 μm. (B) The quantitation of branching points, defined as the intersection of at least three tubes (red arrows), was performed at 24 h either in control cells and cells exposed to the peptides and reported in the histogram (** p-value < 0.005; *** p-value < 0.001).

U251-MG cells [4] = test: Cell viability / proliferation, Trypan blue exclusion, U251-MG; conditions: DMEM/10% FBS, 100 nM peptide, 24, 48 and 72 h
Procedure: as §1, §2, §3, §4, §5

SMILES | growth rate / proliferation rate (U87-MG cells [1]) | inhibition of VM compared to uPAcyclin (in words) (U251-MG cells [2]) | pIC50 (U87-MG cells [3]) | reduction of vessel formation (VM, branching points) (U87-MG cells [3]; 1 nM peptide) [%] | reduction of vessel formation (VM, branching points) (U87-MG cells [3]; 100 nM peptide) [%] | growth rate / proliferation rate (U251-MG cells [4]) | reduction of vessel formation (VM, branching points) (U251-MG cells [2]; 1 nM peptide) [%] | reduction of vessel formation (VM, branching points) (U251-MG cells [2]; 100 nM peptide) [%]
CC(=O)N[C@@H](CCCCN)C(=O)N[C@@H](C)C(=O)N[C@H]1CCC(=O)NCCCC[C@@H](C(N)=O)NC(=O)[C@H](CC(C)C)NC(=O)[C@H](CCC(=O)O)NC(=O)[C@H](CCC(=O)O)NC(=O)[C@@H]2CCCN2C(=O)[C@H](C)NC(=O)[C@H](CO)NC1=O [[Ala^2,Ala^5]uPAcyclin] (Ac-KAESAPEELK-NH2; lactam 3-10) | slight but not significant decrease | slightly more effective inhibitors | > 9.00 | 50 | 70 | slight but not significant decrease | – | –
CC(=O)N[C@@H](CCCCN)C(=O)N1CCC[C@H]1C(=O)N[C@H]1CCC(=O)NCCCC[C@@H](C(N)=O)NC(=O)[C@H](CC(C)C)NC(=O)[C@H](C)NC(=O)[C@H](CCC(=O)O)NC(=O)[C@@H]2CCCN2C(=O)[C@@H]2CCCN2C(=O)[C@H](CO)NC1=O [[Ala^8]uPAcyclin] (Ac-KPESPPEALK-NH2; lactam 3-10) | similar | slightly more effective inhibitors | > 9.00 | 50 | 70 | similar | – | –
CC(=O)N[C@@H](CCCCN)C(=O)N1CCC[C@H]1C(=O)N[C@H]1CCC(=O)NCCCC[C@@H](C(N)=O)NC(=O)[C@H](CC(C)C)NC(=O)[C@H](CCC(=O)O)NC(=O)[C@H](CCC(=O)O)NC(=O)[C@@H]2CCCN2C(=O)[C@@H]2CCCN2C(=O)[C@H](CO)NC1=O [uPAcyclin] (Ac-KPESPPEELK-NH2; lactam 3-10) | similar | – | – | 40 | 70 | similar | 50 | 80

Source: article PMC11853379, “Glioblastoma Cell Migration, Invasion and Vasculogenic Mimicry Downmodulated by Novel uPAcyclin Derivatives” (Cells, 2025)
